# Experimental data reported in patent publication US20240426776A1, “RAPID DIFFERENTIATION OF ANTIBIOTIC-SUSCEPTIBLE AND -RESISTANT BACTERIA THROUGH MEDIATED EXTRACELLULAR ELECTRON TRANSFER” (priority 2021, published 2024).
# “And” between values parts separate entries of the source, which are not always exact repeats. Equal entries are not always repeated. Where two headings read alike, the source gives them in different places.
# Assays:
# Format in all cases: cell-based
# [1] = system: Acinetobacter baumannii (strains 35, 78, 83, and 102); experiment: Microdilution antibiotic susceptibility assay (MIC, CLSI guidelines); details: for MIC: Acinetobacter baumannii, MH media, 16-18 h, 37° C., read-out: estimated minimum inhibitory concentration from this study
# Experimental: (§1) Testing for S. aureus susceptibility to oxacillin differed with incubation at 30° C. for 18-24 h in MH media supplemented with 2% NaCl.
# (§2) Values listed in Table 2 below include the estimated minimum inhibitory concentration from this study (μg/mL), the determination of(S) sensitive or (R) resistant microbes according to CLSI criteria, and the CLSI guidelines (μg/mL) for the species being tested. Empty cells were not evaluated.
# [2] = system: Escherichia coli (strains 61 and 77); experiment: as above; details: for MIC: Escherichia coli, MH media, 16-18 h, 37° C., read-out: estimated minimum inhibitory concentration from this study
# Experimental: as §1, §2
# [3] = system: Acinetobacter baumannii (strains 35, 78, 83, and 102); experiment: READAS electrochemical current response with PMS mediator (ASIn); details: for ASIn (antibiotic susceptibility index), single replicates: ASI2, 15 μM PMS, 0.1 OD600
# Experimental: (§3) For initial quality control, cyclic voltammetry scan was recorded from 0.5 V to −0.5 V then back to 0.5 V using the potentiostat 13 configuration. The potentiostat controls the working electrode voltage relative to the reference electrode.
# (§4) For antibiotic susceptibility experiments, the working electrode 6 was controlled at 0 VAg/AgCl. The current can also be measured and analyzed for determining resistance/susceptibility of pathogens to drugs (e.g., antibiotics) using other devices such as a multiplexer or any interface instrument that can receive one or more data inputs and forward it to an output for analysis and feedback. In particular, such one or more data inputs can be directed to a processor, signal processor, computer-based system, etc. and thereafter/correspondingly any such interface instrument can receive instructions from, such processing instruments as better detailed in the description for the embodiment of FIG. 14 below. It is also to be noted that any induced currents undergo a decision methodology that can be interpreted by such a configured processor, signal processor, computer-based system, etc. for aiding in the determination of antibiotic susceptibility/resistance, such as, the methodology better detailed in the description of FIG. 6 below.
# (§5) Turning back to the discussion for FIG. 1B but also FIG. 1A, an initial baseline was established in the MH media, PMS, and antibiotic mixture for 50-60 min before inoculating the electrochemical cell with a bacteria cell 2. On placing the bacteria cell 2 (again see FIG. 1A) into the electrochemical cell 10, the bacteria cell 2 undergoes metabolic reactions and generates electrons 4 through metabolic processes, as was generally described above. The electron transfer mediator used herein, e.g., PMS, thereafter, operates as an electron carrier in solution 3, and provides generated electrons 4 to the working electrode 6 (herein was aided by stirring mechanism 21, as shown in FIG. 1B). The working electrode 6 thus accepts the electrons provided by the reduced mediators (PMSr) so as to generate currents and returns the mediator back to its oxidized form ([…]) to keep the monitoring of respiration induced currents if viable.
# (§6) Tests disclosed in the example embodiments herein for the purpose of illustration were conducted with an inoculum of 0.1 OD600. A cell density equating to 0.1 OD600 was determined for each species by serial dilution. Briefly, overnight cultures were adjusted to an OD600 of 0.1 and then serially diluted (10^0 to 10^−11) in a multi-well plate before transferring 10 μL of each dilution to separate TSA plates and grown overnight for 16-18 h. The colony forming units per mL (CFU/mL) were quantified using a drop plate method as known to those skilled in the art. Each measurement was replicated at least four times.
# (§7) For performing example experimental tests disclosed in the embodiments herein for further reduction to practice, an overnight culture of the bacteria utilized was prepared. Such a culture was prepared by transferring, for example, two colonies from an agar streak plate into 8-ml MH broth and cultured overnight in an air incubator (37° C.) rotating at 120 rpm for 16-18 h. A 5-ml aliquot of culture was adjusted to 0.5 OD600 with fresh MH media and then centrifuged at 6000 rpm (4185×g) for 8 min and the supernatant decanted. The pellet was then resuspended in 5-mL of 30° C. (S. aureus experiments) or 37° C. (all others) MH media. After resuspension, 2 mL of the culture was used to verify optical density. Finally, 500 μL of the culture was inoculated to the electrochemical cuvettes by pipette through the cap inoculation port (2.5-ml final volume in the cuvette).
# It is to be noted that a CLSI resistance breakpoint concentration is a defined concentration of a susceptible antibiotic that treats the bacteria. […]
# [4] = system: Escherichia coli (strains 61 and 77); experiment: as above; details: for ASIn (antibiotic susceptibility index), single replicates: ASI2, 15 μM PMS, 0.1 OD600
# Experimental: as §3, §4, §5, §6, §7
# The magnitude of the current response was defined as the current magnitude at the inflection point between the exponential growth and the saturated current response.
# [5] = strain 78 (resistant), imipenem 2×CLSI resistance breakpoint
# [6] = strain 102 (susceptible), imipenem 2×CLSI resistance breakpoint
smiles,measurement,setting,value
"C[C@@H](O)[C@H]1C(=O)N2C(C(=O)O)=C(SCCN=CN)C[C@H]12 [Imipenem, imipenem]",MIC,[1]; strain 78,32 µg/mL
same,MIC,[1]; strain 102,1 µg/mL
same,sensitive or resistant according to CLSI criteria,[1]; strain 78,R
same,sensitive or resistant according to CLSI criteria,[1]; strain 102,S
same,MIC,[2]; strain 61,32 µg/mL
same,MIC,[2]; strain 77,0.5 µg/mL
same,sensitive or resistant according to CLSI criteria,[2]; strain 61,R
same,sensitive or resistant according to CLSI criteria,[2]; strain 77,S
same,average ASI2 (average±SE),[3]; [5],0.02±0.13
same,"ASIn (antibiotic susceptibility index), single replicates",[3]; [5],0.04 and −0.5 and 0.24 and 0.19 and 0.16
same,average ASI2 (average±SE),[3]; [6],0.47±0.08
same,"ASIn (antibiotic susceptibility index), single replicates",[3]; [6],0.37 and 0.36 and 0.67 and 0.31 and 0.65
same,average ASI2 (±SE),"[4]; strain 61 (resistant), imipenem 2× (8 μg/mL)",−0.20±0.45
same,"ASIn (antibiotic susceptibility index), single replicates","[4]; strain 61 (resistant), imipenem 2× breakpoint (8 μg/mL)",0.26 and −1.52 and 0.52 and −0.08
same,average ASI2 (±SE),"[4]; strain 77 (susceptible), imipenem 2× (8 μg/mL)",0.86±0.11
same,"ASIn (antibiotic susceptibility index), single replicates","[4]; strain 77 (susceptible), imipenem 2× breakpoint (8 μg/mL)",0.98 and 0.97 and 0.96 and 0.54
"NC[C@H]1O[C@H](O[C@H]2[C@H](O)[C@@H](O[C@H]3O[C@H](CO)[C@@H](O)[C@H](N)[C@H]3O)[C@H](N)C[C@@H]2N)[C@H](N)C[C@@H]1O [Tobramycin, tobramycin]",MIC,[1]; strain 35,0.5 µg/mL
same,MIC,[1]; strain 83,128 µg/mL
same,sensitive or resistant according to CLSI criteria,[1]; strain 35,S
same,sensitive or resistant according to CLSI criteria,[1]; strain 83,R
same,MIC,[2]; strain 61,16 µg/mL
same,MIC,[2]; strain 77,0.5 µg/mL
same,sensitive or resistant according to CLSI criteria,[2]; strain 61,R
same,sensitive or resistant according to CLSI criteria,[2]; strain 77,S
same,average ASI2 (average±SE),"[3]; strain 35 (susceptible), tobramycin 2×CLSI resistance breakpoint",0.63±0.13
same,"ASIn (antibiotic susceptibility index), single replicates","[3]; strain 35 (susceptible), tobramycin 2×CLSI resistance breakpoint (32 μg/mL)",0.48 and 1 and 0.4 and 0.64
same,"ASIn (antibiotic susceptibility index), single replicates","[3]; strain 35 (susceptible), tobramycin 2×CLSI resistance breakpoint (32 μg/mL), listed as tobramycin",0.5
same,average ASI2 (average±SE),"[3]; strain 83 (resistant), tobramycin 2×CLSI resistance breakpoint",0.08±0.06
same,"ASIn (antibiotic susceptibility index), single replicates","[3]; strain 83 (resistant), tobramycin 2×CLSI resistance breakpoint (32 μg/mL)",−0.06 and −0.08 and 0.17 and 0.09 and 0.26
same,"ASIn (antibiotic susceptibility index), single replicates","[3]; strain 83 (resistant), tobramycin 2×CLSI resistance breakpoint (32 μg/mL), listed as tobramycin",0.3
same,decrease in current compared to the control,"[3]; susceptible strain (35), tobramycin 2×CLSI resistance breakpoint, 32 μg/mL, FIG. 4A",50%
same,average ASI2 (±SE),"[4]; strain 61 (resistant), tobramycin 2× (32 μg/mL)",0.17±0.1
same,"ASIn (antibiotic susceptibility index), single replicates","[4]; strain 61 (resistant), tobramycin 2× breakpoint (32 μg/mL)",0.23 and 0.15 and 0.47 and 0.16 and −0.16
same,average ASI2 (±SE),"[4]; strain 77 (susceptible), tobramycin 2× (32 μg/mL)",0.62±0.15
same,"ASIn (antibiotic susceptibility index), single replicates","[4]; strain 77 (susceptible), tobramycin 2× breakpoint (32 μg/mL)",0.92 and 0.4 and 0.86 and 0.33
